Measurements as given in patent US5994334A, “Androgen synthesis inhibitors” (priority 1997, dated 1999).
“Also recorded” adds a separate entry of the source. Like-named read-outs stand apart in the source and are kept apart here.

Tests used:
[1] = molecular target: T1, human 17α-hydroxylase/C17,20-lyase (Homo sapiens, UniProt P05093); test: Inhibition of human testicular 17α-hydroxylase/C17,20-lyase (enzyme complex as a whole); type: biochemical; conditions: for inhibition of 17α-hydroxylase/C17,20-lyase (in words): NI = no inhibition; for times more potent than ketoconazole: vs ketoconazole
T1 construct: incubating human testicular microsomes; from tissue; host or cells: human testis, microsomes
T1 sequence (P05093 1-508): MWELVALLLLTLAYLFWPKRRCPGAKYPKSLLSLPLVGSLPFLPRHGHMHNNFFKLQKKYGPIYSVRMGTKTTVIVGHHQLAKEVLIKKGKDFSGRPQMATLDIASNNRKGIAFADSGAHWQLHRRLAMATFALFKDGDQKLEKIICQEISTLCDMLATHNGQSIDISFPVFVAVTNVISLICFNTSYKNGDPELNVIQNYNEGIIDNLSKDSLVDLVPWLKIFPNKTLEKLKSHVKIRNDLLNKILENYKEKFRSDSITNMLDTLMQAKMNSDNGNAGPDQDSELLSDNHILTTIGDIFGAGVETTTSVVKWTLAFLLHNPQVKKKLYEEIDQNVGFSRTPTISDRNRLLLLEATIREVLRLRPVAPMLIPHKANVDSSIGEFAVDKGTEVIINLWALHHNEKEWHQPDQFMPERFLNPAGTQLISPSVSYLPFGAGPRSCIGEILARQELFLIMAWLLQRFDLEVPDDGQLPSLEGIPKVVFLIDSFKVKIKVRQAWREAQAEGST
Procedure: (§1) The conversion of radiolabeled pregnenolone to 17α-hydroxypregnenolone and DHEA by 17α-hydroxylase/C17,20 -lyase was measured by incubating human testicular microsomes with different concentration of test compounds. Reverse phase HPLC was used to separate and accurately quantify the amount of substrate and metabolites. The 17α-hydroxylase and C17,20 -lyase activities were calculated separately. The activity of 17α-hydroxylase was calculated from the conversion of pregnenolone to 17α-hydroxypregnenolone and DHEA and the activity of C17,20 -lyase was based on the conversion of pregnenolone to DHEA. Although 17α-hydroxypregnenolone is the substrate converted to DHEA by C17,20 -lyase, it has been reported that this 17α-hydroxy intermediate is not released from the enzyme binding site during conversion (Nakajin et al., 1981a,b). Also, there are species differences in substrate requirements. Pregnenolone is the natural substrate rather than progesterone for human testicular 17α-hydroxylase and C17,20 -lyase. Therefore, pregnenolone was used as substrate for measuring the activity of this enzyme complex.

[2] = molecular target: T2, Human Testicular 17α-Hydroxylase (Homo sapiens, UniProt P05093); test: Inhibition of human testicular 17α-hydroxylase (pregnenolone substrate, testicular microsomes); type: biochemical
T2 construct: incubating human testicular microsomes; from tissue; host or cells: human testis, microsomes
T2 sequence (P05093 1-508): T1 sequence (P05093 1-508)
Procedure: as §1

[3] = molecular target: T3, Human Testicular C17,20-lyase (Homo sapiens, UniProt P05093); test: Inhibition of human testicular C17,20-lyase (pregnenolone substrate, testicular microsomes); type: biochemical
T3 construct: incubating human testicular microsomes; from tissue; host or cells: human testis, microsomes
T3 sequence (P05093 1-508): T1 sequence (P05093 1-508)
Procedure: as §1

[4] = molecular target: T4, Human Prostatic 5α-Reductase (Homo sapiens, UniProt P31213); test: Inhibition of human prostatic 5α-reductase (prostatic microsomes, [3H]testosterone); conditions: for inhibition at 0.1 µM: read-out: % Inhibition of 5α-reductase, [I] 100 nM
T4 sequence (P31213 1-254): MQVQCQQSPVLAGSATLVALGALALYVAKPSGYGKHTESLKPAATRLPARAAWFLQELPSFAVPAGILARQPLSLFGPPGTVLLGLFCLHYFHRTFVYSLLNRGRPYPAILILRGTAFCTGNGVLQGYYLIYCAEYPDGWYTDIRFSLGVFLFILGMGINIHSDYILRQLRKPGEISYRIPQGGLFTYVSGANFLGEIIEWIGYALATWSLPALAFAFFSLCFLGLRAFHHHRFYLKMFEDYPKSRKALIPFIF

[5] = test system: LNCaP human prostatic cancer cell line; test: Androgen-dependent growth of LNCaP cells
Procedure: The ability of various inhibitors to reverse the stimulatory effect of testosterone on the growth of the LNCaP human prostatic cancer cell line was tested by comparing cell number in wells treated for 9 days with either drug vehicle only (control), 0.1 nM testosterone only, or 0.1 nM testosterone with inhibitor at 0.3, 1, 2.5, or 5 μM.

[6] = Table 1, NI = no inhibition, read-out: IC50 17α-OHase
[7] = Table 1, NI = no inhibition, CI = complete inhibition, read-out: IC50 C17,20 lyase
[8] = IC50 5α-reductase, Table 3, NI = no inhibition

Question: For `CN(C=O)[C@H]1CC[C@H]2[C@@H]3CCC4=CC(=O)CC[C@]4(C)[C@H]3CC[C@]12C` [Compound I-40], which “fold lower inhibition than I-16” value ([1]; vs I-16) is on record?
Answer: Its value is “approximately 4 fold”.

Question: And the IC50 [2, 6]?
Answer: The IC50 was 760 nM.

Question: And the IC50 [3, 7]?
Answer: The IC50 was 680 nM.

Question: What about the IC50 ([4]; IC50 5α-reductase, Table 2) of the same molecule?
Answer: The IC50 was 150 nM.

Question: For `C[C@@H](O)C1=CC[C@H]2[C@@H]3CCC4=CC(=O)CC[C@]4(C)[C@H]3CC[C@]12C` [Compound L-10, 20β-hydroxy-pregna-4,16-dien-3-one], which “reversal of DHT-stimulated LNCaP growth (in words)” value ([5]; 0.03 nM DHT) is on record?
Answer: The value was “not dose-dependent”.

Question: And the “reversal of testosterone-stimulated LNCaP growth (in words)” value ([5]; 0.1 nM testosterone, inhibitor 0.3-5 μM, 9 days)?
Answer: Its value is “dose-dependent reversal”.

Question: And the inhibition at 0.1 µM ([2]; read-out: % Inhibition 17α-hydroxylase, [I] = 100 nM)?
Answer: The inhibition at 0.1 µM was 14.9%.

Question: And the inhibition at 0.4 µM ([2]; read-out: % Inhibition 17α-hydroxylase, [I] = 400 nM)?
Answer: Its inhibition at 0.4 µM is 8.19%.

Question: What about the inhibition at 0.1 µM ([3]; read-out: % Inhibition C17,20-lyase, [I] = 100 nM) of the same molecule?
Answer: The inhibition at 0.1 µM was 2.28%.

Question: What about the inhibition at 0.4 µM ([3]; read-out: % Inhibition C17,20-lyase, [I] = 400 nM) of the same molecule?
Answer: Its inhibition at 0.4 µM is 8.48%.

Question: And the IC50 ([4]; IC50 5α-reductase)?
Answer: The IC50 was 20 nM.

Question: What about the IC50 ([4]; IC50 5α-reductase, Table 2) of the same molecule?
Answer: Its IC50 is 21 nM.

Question: What about the IC50 [4, 8] of the same molecule?
Answer: The IC50 was 21 nM.

Question: And the “inhibition of 5α-reductase (in words)” value ([4]; NI = no inhibition)?
Answer: Its value is “almost equipotent with finasteride”.

Question: What about the inhibition at 0.01 µM ([4]; read-out: % Inhibition of 5α-reductase, [I] 10 nM) of the same molecule?
Answer: The inhibition at 0.01 µM was 97%.

Question: And the inhibition at 0.1 µM [4]?
Answer: Its inhibition at 0.1 µM is 90.7%.

Question: Which “inhibition of 17α-hydroxylase/C17,20-lyase (in words)” value [1] does the source give for `C[C@@H](O)[C@H]1CC[C@H]2[C@@H]3CC=C4C[C@@H](O)CC[C@]4(C)[C@H]3CC[C@]12C` [Compound I-20] here?
Answer: Its value is “potent inhibition”.

Question: What about the IC50 ([2]; IC50 17α-OHase) of the same molecule?
Answer: The IC50 was 180 nM.

Question: What about the IC50 ([3]; IC50 C17,20 lyase) of the same molecule?
Answer: The IC50 was 190 nM.

Question: And the “inhibition of 5α-reductase (in words)” value ([4]; NI = no inhibition)?
Answer: The value was “neither showed activity against 5α-reductase”.

Question: Which results are given for `C[C@H](c1c[nH]cn1)[C@H]1CC[C@H]2[C@@H]3CCC4=CC(=O)CC[C@]4(C)[C@H]3CC[C@]12C` [Compound I-45]?
Answer: inhibition of 17α-hydroxylase/C17,20-lyase (in words) [1]: did not show any activity; IC50 [2, 6]: > 30000 nM; IC50 [3, 7]: > 30000 nM

Question: `CC(=NO)[C@H]1CC[C@H]2[C@@H]3CCC4=CC(=NO)CC[C@]4(C)[C@H]3CC[C@]12C` [Compound I-42] was tested. Which “inhibition of 17α-hydroxylase/C17,20-lyase (in words)” value [1] did it give?
Answer: The value was “decreased activity”.

Question: What about the IC50 [2, 6] of the same molecule?
Answer: Its IC50 is 210 nM.

Question: What about the IC50 [3, 7] of the same molecule?
Answer: The IC50 was 220 nM.

Question: What about the “inhibition of 5α-reductase (in words)” value ([4]; NI = no inhibition) of the same molecule?
Answer: The value was “decreased activity”.

Question: What about the IC50 ([4]; read-out: IC50 5α-reductase, Table 2) of the same molecule?
Answer: The IC50 was 2060 nM.

Question: What does the source list for `CC(=NO)C1=CC[C@H]2[C@@H]3CCC4=CC(=O)CC[C@]4(C)[C@H]3CC[C@]12C` [Compound L-2, 16-dehydroprogesterone-20-oxime]?
Answer: inhibition of 17α-hydroxylase/C17,20-lyase (in words) [1]: potent inhibitors of both enzymes; stronger activity than I-5 against 17α-hydroxylase/C17,20-lyase ([1]; vs I-5): twofold stronger activity; times more potent than ketoconazole [1]: 10-50 times; IC50 [2, 6]: 8.7 nM; IC50 ([2]; Table 3, first figure of 17α-hydroxylase/lyase pair, read-out: IC50 17α-hydroxylase): 8.65 nM; IC50 ([2]; first figure of pair, read-out: IC50 17α-hydroxylase): 6 nM; IC50 ([3]; second figure of pair, read-out: IC50 C17,20-lyase): 5 nM; IC50 ([4]; IC50 5α-reductase): 52.5 nM; IC50 ([4]; IC50 5α-reductase, Table 2): 52 nM; IC50 [4, 8]: 52.5 nM; inhibition of 5α-reductase (in words) ([4]; NI = no inhibition): potent inhibition of 5α-reductase; also recorded: potent inhibitor of human 5α-reductase; inhibition at 0.1 µM [4]: 45.5%; times less potent than finasteride (5α-reductase) ([4]; vs finasteride): 4-6 times

Question: How did the “inhibition of 17α-hydroxylase/C17,20-lyase (in words)” value [1] turn out when `CC(=O)C1=CC[C@H]2[C@@H]3CCC4=CC(=O)CC[C@]4(C)[C@H]3CC[C@]12C` [Compound L-13, 16-dehydroprogesterone] was run?
Answer: The value was “potent inhibitors of both enzymes”.

Question: What about the “times more potent than ketoconazole” value [1] of the same molecule?
Answer: Its value is 10-50 times.

Question: What about the IC50 ([2]; IC50 17α-OHase) of the same molecule?
Answer: The IC50 was 73 nM.

Question: And the IC50 ([2]; IC50 17α-hydroxylase)?
Answer: The IC50 was 72.7 nM.

Question: And the IC50 ([2]; IC50 17α-hydroxylase (text))?
Answer: The IC50 was 73 nM.

Question: What about the IC50 ([3]; IC50 C17,20-lyase) of the same molecule?
Answer: The IC50 was 24 nM.

Question: And the IC50 ([3]; IC50 C17,20 lyase)?
Answer: Its IC50 is 24 nM.

Question: And the IC50 ([3]; IC50 lyase)?
Answer: The IC50 was 23.7 nM.

Question: And the IC50 ([4]; IC50 5α-reductase)?
Answer: The IC50 was 22 nM.

Question: What about the IC50 ([4]; IC50 5α-reductase, Table 2) of the same molecule?
Answer: The IC50 was 22 nM.

Question: What about the IC50 [4, 8] of the same molecule?
Answer: The IC50 was 21.8 nM.

Question: And the “inhibition of 5α-reductase (in words)” value ([4]; NI = no inhibition)?
Answer: Its value is “potent inhibition of 5α-reductase; also recorded: almost equipotent with finasteride”.

Question: What about the inhibition at 0.1 µM [4] of the same molecule?
Answer: The inhibition at 0.1 µM was 87.8%.

Question: What about the inhibition at 0.4 µM ([4]; read-out: % Inhibition of 5α-reductase, [I] 400 nM) of the same molecule?
Answer: The inhibition at 0.4 µM was 96.4%.

Question: Which “inhibition of 17α-hydroxylase/C17,20-lyase (in words)” value [1] does the source give for `C[C@@H](N)[C@H]1CC[C@H]2[C@@H]3CC=C4C[C@@H](O)CC[C@]4(C)[C@H]3CC[C@]12C` [Compound I-9] here?
Answer: Its value is “poor inhibition”.

Question: What about the IC50 [2, 6] of the same molecule?
Answer: Its IC50 is 89800 nM.

Question: What about the IC50 [3, 7] of the same molecule?
Answer: Its IC50 is 43900 nM.
